The target of one test is T1, CDK2/Cyclin E1 (Homo sapiens, UniProt P24941).
T1 construct: NV2641; host or cells: HEK-293
As to the kind of experiment: NanoBRET cellular target engagement assay, CDK2/Cyclin E1 in HEK-293 cells. Type of test: cell-based. Particulars: HEK-293 cells transfected with CDK2-NanoLuc and CCNE1; tracer K10 0.5 μM; 2 hrs. The protocol:
(§1) In the assay, HEK-293 cells were cultured to appropriate confluence before being transiently transfected with a mix of CDK2-NanoLuc® Fusion Vector (Promega, NV2781) and CCNE1 expression vector (Promega, NV2641) for CDK2 NanoBRET assays, or CDK1-NanoLuc® Fusion Vector (Promega, NV2701) and CCNB1 expression vector (Promega, NV2601) for CDK1 NanoBRET assay, by using lipid: DNA complexes formed with FuGENE HD transfection agent (Promega, E2311). The transfected cells were cultured overnight in 1% FBS Opti-MEM media to allow the expression to fully occur. Once the expression fully occurred, varying concentrations of the test compounds were added to the cells, before a cell-permeable, fluorescent tracer (tracer K10 from Promega, N2840) was added to achieve final tracer concentration of 0.5 μM. After the addition of Nano-Glo substrate (part of a kit, Promega, N2840) and Extracellular NanoLuc inhibitor (part of a kit, Promega, N2840) 2 hrs after tracer addition, the cellular engagement of the tracer and the competition with testing compounds to the target protein was assessed based on the resulting bioluminescence resonance energy transfer (BRET) signal. BRET ratio was generated by dividing the acceptor emission signal (610 nm) by the donor emission signal (450 nm) for each sample. […] All IC50 curves were calculated using a 4 parameter logistic nonlinear regression model.
(In general: BRET reads energy transfer from a luciferase to a nearby fluorophore.)

The target of the next test is T2, CDK1/Cyclin B (Homo sapiens, UniProt P06493).
T2 construct: NV2601; host or cells: HEK-293
Nature of the test: NanoBRET cellular target engagement assay, CDK1/Cyclin B in HEK-293 cells. Type of test: cell-based. The following applies: HEK-293 cells transfected with CDK1-NanoLuc and CCNB1; tracer K10 0.5 μM; 2 hrs. The protocol:
as §1

pIC50: −log10 of the molar value.

T2 sequence (P06493 whole entry): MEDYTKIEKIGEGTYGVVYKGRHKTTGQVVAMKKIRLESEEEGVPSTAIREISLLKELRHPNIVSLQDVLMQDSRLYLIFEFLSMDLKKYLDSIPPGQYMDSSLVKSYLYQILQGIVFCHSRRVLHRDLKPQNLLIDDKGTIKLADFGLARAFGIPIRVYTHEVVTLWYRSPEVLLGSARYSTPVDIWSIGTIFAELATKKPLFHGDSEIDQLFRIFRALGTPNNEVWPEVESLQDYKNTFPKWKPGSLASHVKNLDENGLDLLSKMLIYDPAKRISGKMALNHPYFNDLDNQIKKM
T2 sequence (P14635 whole entry partner): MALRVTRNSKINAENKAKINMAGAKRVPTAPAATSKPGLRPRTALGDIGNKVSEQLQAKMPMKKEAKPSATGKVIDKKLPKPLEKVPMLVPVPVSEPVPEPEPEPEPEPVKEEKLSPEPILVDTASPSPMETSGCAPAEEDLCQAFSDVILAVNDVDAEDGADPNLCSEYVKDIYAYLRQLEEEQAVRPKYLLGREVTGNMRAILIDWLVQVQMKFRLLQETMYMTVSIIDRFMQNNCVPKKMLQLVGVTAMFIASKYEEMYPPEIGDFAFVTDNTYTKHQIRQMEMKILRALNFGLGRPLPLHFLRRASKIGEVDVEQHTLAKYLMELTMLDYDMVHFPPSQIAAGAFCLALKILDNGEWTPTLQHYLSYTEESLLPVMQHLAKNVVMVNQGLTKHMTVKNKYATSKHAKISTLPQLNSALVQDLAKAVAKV

Turning to `O[C@H]1CC[C@H](n2ccc3ncc(Nc4cc(OC(F)F)[nH]n4)nc32)CC1` [Example 12, (1r,4r)-4-(3-((5-(difluoromethoxy)-1H-pyrazol-3-yl)amino)-5H-pyrrolo[2,3-b]pyrazin-5-yl)cyclohexan-1-ol], the pIC50 at CDK2/Cyclin E1 was 8.96; on CDK1/Cyclin B, 6.46.

In the case of `CN1CCC(Cn2ccc3ncc(Nc4cc(OC(F)F)[nH]n4)nc32)CC1` [Example 8, N-(5-(difluoromethoxy)-1H-pyrazol-3-yl)-5-((1-methylpiperidin-4-yl)methyl)-5H-pyrrolo[2,3-b]pyrazin-3-amine], the pIC50 at CDK2/Cyclin E1 is 6.79; on CDK1/Cyclin B, under 5.00.

With `OC1(Cn2ccc3ncc(Nc4cc(OC(F)F)[nH]n4)nc32)CCOCC1` [Example 14, 4-((3-((5-(difluoromethoxy)-1H-pyrazol-3-yl)amino)-5H-pyrrolo[2,3-b]pyrazin-5-yl)methyl)tetrahydro-2H-pyran-4-ol], the pIC50 is 6.86 on CDK2/Cyclin E1 and 6.49 at CDK1/Cyclin B.

On to `FC(F)Oc1cc(Nc2cnc3ccn(CC4CCNCC4)c3n2)n[nH]1` [Example 7, N-(5-(difluoromethoxy)-1H-pyrazol-3-yl)-5-(piperidin-4-ylmethyl)-5H-pyrrolo[2,3-b]pyrazin-3-amine], for which the pIC50 on CDK2/Cyclin E1 is 5.95; at CDK1/Cyclin B it was under 5.00.

As for `c1cncc(Cn2ccc3ncc(Nc4cc([C@@H]5CCOC5)[nH]n4)nc32)c1` (single isomer, unassigned) [Example 17, (S)-5-(pyridin-3-ylmethyl)-N-(5-(tetrahydrofuran-3-yl)-1H-pyrazol-3-yl)-5H-pyrrolo[2,3-b]pyrazin-3-amine or (R)-5-(pyridin-3-ylmethyl)-N-(5-(tetrahydrofuran-3-yl)-1H-pyrazol-3-yl)-5H-pyrrolo[2,3-b]pyrazin-3-amine], the pIC50 is 8.24 against CDK2/Cyclin E1 and 6.20 at CDK1/Cyclin B.

In the case of `Cc1cc(Nc2cnc3ccn(Cc4cccnc4)c3n2)n[nH]1` [Example 19, N-(5-methyl-1H-pyrazol-3-yl)-5-(pyridin-3-ylmethyl)-5H-pyrrolo[2,3-b]pyrazin-3-amine], the negative-log IC50 (pIC50) at CDK2/Cyclin E1 was 7.45; against CDK1/Cyclin B it was 5.35.

Regarding `COc1cc(Nc2cnc3ccn(Cc4cccnn4)c3n2)n[nH]1` [Example 22, N-(5-methoxy-1H-pyrazol-3-yl)-5-(pyridazin-3-ylmethyl)-5H-pyrrolo[2,3-b]pyrazin-3-amine], the values for the pIC50 on CDK2/Cyclin E1 and at CDK1/Cyclin B were 8.16 and 6.68, respectively.

Take `CN1CCC[C@H](Cn2ccc3ncc(Nc4cc(OC(F)F)[nH]n4)nc32)C1` [Example 10, (S)—N-(5-(difluoromethoxy)-1H-pyrazol-3-yl)-5-((1-methylpiperidin-3-yl)methyl)-5H-pyrrolo[2,3-b]pyrazin-3-amine]: the pIC50 against CDK2/Cyclin E1 is 8.22; on CDK1/Cyclin B, 5.49.

Regarding `FC(F)Oc1cc(Nc2cnc3ccn(C[C@H]4CCCNC4)c3n2)n[nH]1` [Example 9, (S)—N-(5-(difluoromethoxy)-1H-pyrazol-3-yl)-5-(piperidin-3-ylmethyl)-5H-pyrrolo[2,3-b]pyrazin-3-amine], the pIC50 against CDK2/Cyclin E1 is 8.31; against CDK1/Cyclin B, 5.76.

For `FC(F)Oc1cc(Nc2cnc3ccn(Cc4cccnn4)c3n2)n[nH]1` [Example 13, N-(5-(difluoromethoxy)-1H-pyrazol-3-yl)-5-(pyridazin-3-ylmethyl)-5H-pyrrolo[2,3-b]pyrazin-3-amine], the pIC50 at CDK2/Cyclin E1 was 8.13; against CDK1/Cyclin B, 6.05.

For `C[C@@H](CO)Cn1ccc2ncc(Nc3cc(OC(F)F)[nH]n3)nc21` [Example 15, (R)-3-(3-((5-(difluoromethoxy)-1H-pyrazol-3-yl)amino)-5H-pyrrolo[2,3-b]pyrazin-5-yl)-2-methylpropan-1-ol], the pIC50 at CDK2/Cyclin E1 was 8.06; against CDK1/Cyclin B, 5.13.

In the case of `c1cnnc(Cn2ccc3ncc(Nc4cc(C5COC5)[nH]n4)nc32)c1` [Example 23, N-(5-(oxetan-3-yl)-1H-pyrazol-3-yl)-5-(pyridazin-3-ylmethyl)-5H-pyrrolo[2,3-b]pyrazin-3-amine], the pIC50 at CDK2/Cyclin E1 was 6.96; on CDK1/Cyclin B, 5.89.

The term pIC50 denotes the IC50 on a negative log10 scale, so that one unit is a factor of ten. Higher therefore signals a low IC50.

The values above are taken from patent US20260217719A1, “CDK2 INHIBITORS” (BLUEPRINT MEDICINES CORPORATION, priority 2023, published 2026).
